# Assays:
# Format in all cases: functional, Homo sapiens, Cancer cell lines
# [1] = Antitumor activity against lung cancer cells in lung cancer patient assessed as survival rate relative to control
# [2] = Antitumor activity against lung cancer cells in lung cancer patient assessed as remission rate relative to control
# [3] = Antitumor activity against lung cancer cells in lung cancer patient assessed as tumor growth inhibition relative to control
smiles,measurement,setting,value
CC(C)=CC[C@@H](O)C1=CC(=O)c2c(O)ccc(O)c2C1=O [SHIKONIN],Survival,[1],47%
same,Activity,[2],37%
same,TGI,[3],63%

# Source: ChEMBL document CHEMBL2384905, “Therapeutic agents triggering nonapoptotic cancer cell death” (J Med Chem, 2013)
